# In patent US20230035403A1, “Method For Determining Responsiveness To Prostate Cancer Treatment” (Janssen Biotech, Inc., priority 2020, published 2023):
# Tested on: autologous CD3+ Pan-T cells (CD8+ and CD4+ T cells) with peptide-pulsed CD1c+ Dendritic Cells
# Assay: Exogenous autologous normal donor restimulation assay (in vitro immunogenicity)
# Format: cell-based, human
# Settings: Table 25, pool of overlapping 15-mer peptides, maximum across normal donors; for Maximum Fold Change Over Background CD4+ cells: TNFα+IFNγ+ CD4+ T cells; for Maximum Fold Change Over Background CD4+ cells / Maximum Fold Change Over Background CD8+ cells: over negative control; for Maximum Fold Change Over Background CD8+ cells: TNFα+IFNγ+ CD8+ T cells
# Protocol: CD1c+ Dendritic Cells (DC) isolated from human normal PBMCs were thawed using media (IMDM (Gibco) supplemented with glutamine, HEPES, 5% human serum (Sigma), and 1× Pen-Strep). DC cells were resuspended in media supplemented with IL-4 (Peprotech, 80 ng/mL) and GM-CSF (Gibco, 80 ng/mL), plated in 6 well microplates, and rested overnight at 37° C. (5% CO2). The following day, DC cells were counted and plated in a 96 well round bottom microplate at a concentration of 30,000 viable cells per well. Lyophilized peptides (15-mer overlapping peptides) were solubilized in 100% DMSO and pooled by neoantigen to between 5 mg/mL and 20 mg/mL. Neoantigen peptides pools were added to DCs for a final concentration of 2.5 μg/mL to 10 μg/mL and rested for 2 hours at 37° C. (5% CO2). CEF Peptide Pool “Plus” (Cellular Technologies, Ltd.) was utilized as a positive control and DMSO at the same final concentration as the experimental peptides was utilized as a negative control. After 2 hours, DC cells were irradiated with 50 gray of ionizing radiation. Autologous CD3+ Pan-T cells isolated from human normal PBMCs were thawed using media. Following irradiation, autologous Pan-T cells were added to the irradiated DCs at 300,000 viable cells per well. Human IL-15 (Peprotech) was added to all wells at final concentration of 10 ng/mL.
# Plates were incubated at 37° C. (5% CO2) for a total of 12 days. Media was refreshed every 2-3 days with IL-15 (10 ng/mL final concentration) and IL-2 (R&D systems, 10 IU/mL final concentration). On day 11 cells were re-stimulated with identical experimental peptide pools or controls, at same concentration as peptide stimulation on Day 1. Protein Inhibitor Cocktail (eBioscience) was added to every well and plate was incubated overnight at 37° C. (5% CO2).
# On day 12, cells were stained for intracellular flow cytometry analysis. The cells were washed with PBS and stained with Live/Dead Fixable Aqua Dead Cell stain (Thermo-Fisher). Following the live/dead stain, cells were blocked using Biotin-Free Fc Receptor Blocker (Accurate Chemical & Scientific Corp). Extracellular cellular flow panel (1 μL/antibody per well in 50 μL) consisted of CD3 PerCP-Cy5.5 (Biolegend), CD4 BV421 (Biolegend), and CD8 APC-Cy7 (Biolegend). After extracellular staining, cells were fixed using Foxp3/Transcription Factor Staining Buffer Set (eBioscience) and stained for intracellular proteins (1:50 dilution) using TNFα FITC (R&D Systems) and IFNγ BV785 (Biolegend). Cells were washed and resuspended in stain buffer and analyzed using a BD Celesta flow cytometer.
# Flow cytometry cell staining analysis was completed using FlowJo v10. Cells were gated on live, singlet, CD3+ cells. The CD8+ and CD4+ T cells were analyzed for TNFα/IFNγ expression and the frequency of double positive TNFα/IFNγ CD8+ and the frequency of double positive TNFα/IFNγ CD4+ T cells were recorded. Responses were assessed to be positive when the frequency of double positive TNFα/IFNγ CD8+ or TNFα/IFNγ CD4+ T cells due to stimulation with an experimental peptide pool was increased greater than or equal to 3-fold over the DMSO only negative control for that donor and at least 0.01%.
# (§1) Overlapping 15-mer peptides were designed to span each neoantigen incorporated into NeoGAd20 and NeoMVA to assess their ability to activate T cells using the exogenous autologous normal donor restimulation assay described in Example 1 as pools using TNFα and IFNγ production by CD8^+ and CD4^+ T cells as a readout.
# as §1, with “Immunogenicity of various additional identified neoantigens was assessed. Overlapping” for “Overlapping”, “similarly to what was done in Example 11” for “incorporated into NeoGAd20 and NeoMVA”
Sequence,Maximum Fold Change Over Background CD4+ cells,Maximum Fold Change Over Background CD8+ cells,Maximum Frequency of TNFα/IFNγ Double Positive CD4+ T cells,Maximum Frequency of TNFα/IFNγ Double Positive CD8+ T cells
YEAGMTLGEKFRVGNCKHLKMTRP [Neoantigen P82],4.44,2.92,0.17,0.09
YEAGMTLGGKILFFLFLLLPLSPFSLIF [Neoantigen P87],7.86,9.20,0.110,0.460
SLYHREKQLIAMDSAI [Neoantigen P22],18.16,1.56,0.075,0.025
